# Laboratory results as given in patent US20220249415A1, “COMPOSITION OF AZELAIC ACID HAVING ADIPOSE TRIGLYCERIDE HYDROLYSIS EFFECT” (Korea University Research and Business Foundation, priority 2018, published 2022).
# Substitutions are numbered along the chain they refer to.
# Key:
# ob/ob mice = assay: Anti-obesity effect, oral administration to genetically obesity-induced ob/ob mice; type: in vivo, mouse; settings: 50 mg/kg oral
# Procedure: After orally administering azelaic acid to an ob/ob mouse (Samtako, Seoul, Korea) corresponding to a genetically obesity-induced mouse at a concentration of 50 mg/kg, a degree of obesity thereof was compared with that of a control group to which azelaic acid was not administered. More specifically, an increase in body weight, a feed intake amount, body fat, blood indices, blood lipid indices, a weight of liver tissue, ALT and AST corresponding to hepatotoxicity indices, and energy metabolism were analyzed. Changes in body weight in azelaic acid administration group and a control group were observed once a week for an experiment period of 6 weeks. Body fats (total fat, subcutaneous fat, and abdominal fat) of mice in the azelaic acid administration group to which azelaic acid was orally administered for 6 weeks and a control group were measured through micro CT image analysis. The subcutaneous fat was quantified for the entire site of the mouse, and the abdominal fat was calculated by quantifying an amount of abdominal fat at the 15th to 20th lumbar spine sites of the mouse. In order to evaluate an effect on mouse lipid metabolism of azelaic acid in the administration group to which azelaic acid was orally administered for 6 weeks and the control group, concentrations of blood triglycerides, adiponectin, and cholesterol were measured. Weights of the liver tissue, ALT, and AST of the mice in the azelaic acid administration group to which azelaic acid was orally administered for 6 weeks and the control group were measured.
# OR2K2 [1] = target: T1, OR2K2 (Homo sapiens, UniProt Q8NGT1); assay: siRNA knock-down of OR2K2 in HepG2 cells, fatty acid oxidation-related gene expression; type: cell-based
# T1 construct: endogenous in cells; host or cells: HepG2
# T1 sequence (Q8NGT1 1-316): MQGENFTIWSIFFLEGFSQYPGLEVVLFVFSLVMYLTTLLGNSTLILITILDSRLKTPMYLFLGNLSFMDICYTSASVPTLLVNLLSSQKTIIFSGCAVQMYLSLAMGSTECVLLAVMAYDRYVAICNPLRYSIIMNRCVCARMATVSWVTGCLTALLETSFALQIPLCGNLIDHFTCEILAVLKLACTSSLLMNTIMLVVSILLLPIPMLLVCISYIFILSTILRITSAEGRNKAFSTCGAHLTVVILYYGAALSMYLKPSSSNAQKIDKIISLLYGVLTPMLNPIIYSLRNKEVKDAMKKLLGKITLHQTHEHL
# Source text: The gene expression of OR1E1, OR1K1, OR2K2, OR2S2, OR13C5, and OR51E2, corresponding to the top 6 receptors among 10 human olfactory receptors selected to be expressed in both adipose tissue and liver tissue while interacting with azelaic acid, was knocked down with siRNA in human-derived liver cell and adipocyte lines, namely HepG2 cells and hAMSC cells, respectively. Here, siRNAs that were used were OR1E2 siRNA (sc-93932), OR1K2 (sc-92810), OR2K2 (sc-92852), OR2S2 (sc-92505), OR13C5 (sc-92899), and OR51E2 (sc-76265), purchased from Santa Cruz Biotechnology Inc. (Dallas, Tx USA).
# After knock-down treatment, the cell lines were treated with azelaic acid, and triglyceride hydrolysis and fatty acid oxidation-related gene expression in HepG2 cells as a human-derived liver cell line and hAMSC cells as a human-derived adipocyte line were measured.
# OR2K2 [2] = target: T2, OR2K2 (Homo sapiens, UniProt Q8NGT1, D270A); assay: Luciferase assay of OR2K2 mutants transfected into Hana3A cells; type: cell-based; settings: OR2K2 D270A mutant in Hana3A cells
# T2 construct: expressed in transfected cells; host or cells: Hana3A
# T2 sequence (Q8NGT1 1-316 D270A): T1 sequence (Q8NGT1 1-316) with D270A
# Source text: (§1) In order to confirm the binding site of the olfactory receptor OR2K2 protein that binds to azelaic acid, among amino acids, Y120, which is a tyrosine (Y) residue, E159, which is a glutamate (E) residue, and D270, which is an aspartate (D) residue, were predicted through in-silico modeling, and the corresponding position of the predicted amino acid residue was subjected to site-directed mutagenesis to obtain a mutant. For negative controls, Y120A, E159A, and D270A mutants in which all three amino acid residues were replaced with alanine were used. For positive controls, Y120F, E159D, and D270E mutants, including Y120F replaced with phenylalanine (F) for Y120, E159D replaced with aspartate for E159, and D270E replaced with glutamate for D270, were used.
# (§2) The cDNA clone including the sequence of each OR2K2 mutant for measuring the binding affinity of azelaic acid was transfected into Hana3A cells, and a luciferase assay was performed. […] This is deemed to be because azelaic acid binds to OR2K2 by reacting the E159 and D270 moieties of OR2K2 with both carboxyl groups of azelaic acid.
# OR2K2 [3] = target: T3, OR2K2 (Homo sapiens, UniProt Q8NGT1, E159A); assay: as above; type: cell-based; settings: OR2K2 E159A mutant in Hana3A cells
# T3 construct: expressed in transfected cells; host or cells: Hana3A
# T3 sequence (Q8NGT1 1-316 E159A): T1 sequence (Q8NGT1 1-316) with E159A
# Source text: as §1, §2
# OR2K2 [4] = assay: as above; type: cell-based, human; settings: OR2K2 with both D270 and E159 mutated, Hana3A cells
# Source text: as §1, §2
structure (smiles),measurement,setting,value
"O=C(O)CCCCCCCC(=O)O [azelaic acid, nonanedioic acid]",concentration of blood cholesterol,ob/ob mice; 6 weeks,significantly decreased
same,concentration of blood triglyceride,ob/ob mice; 6 weeks,significantly decreased
same,weight of the liver tissue,ob/ob mice; 6 weeks,decreased
same,body weight,"ob/ob mice; 6 weeks, on and after the first week, vs control group",significantly decreased
same,ALT (hepatotoxicity index),"ob/ob mice; 6 weeks, vs control group",no large difference
same,AST (hepatotoxicity index),"ob/ob mice; 6 weeks, vs control group",no large difference
same,abdominal fat (micro CT),"ob/ob mice; 6 weeks, vs control group",significantly decreased
same,subcutaneous fat (micro CT),"ob/ob mice; 6 weeks, vs control group",significantly decreased
same,total fat (micro CT),"ob/ob mice; 6 weeks, vs control group",significantly decreased
same,feed intake amount,"ob/ob mice; final week, vs control group",no significant difference
same,"expression of fatty acid oxidation-related genes (PPARa, CTP1, Acox2) upon treatment with azelaic acid",OR2K2 [1]; HepG2 cells during knock-down of OR2K2,did not change
same,"expression of fatty acid oxidation-related genes (PPARa, CTP1, Acox2), knocked-down group compared to control group","OR2K2 [1]; HepG2 cells, OR2K2 knock-down, upon treatment with azelaic acid",statistically significantly decreased
same,activity of azelaic acid (luciferase),OR2K2 [2],statistically significantly decreased
same,activity of azelaic acid (luciferase),OR2K2 [3],statistically significantly decreased
same,azelaic acid reaction (luciferase),OR2K2 [4],statistically significantly reduced
